In patent US10925280B2, “Solid agrochemical compositions” (UPL LIMITED, priority 2015, dated 2021):

What was measured:
[1] = Weight gain (uptake of moisture) at 30° C. and 60% humidity as per ASTM (1996) method; type: physicochemical
Source text: (§1) It has been observed that the granular compositions according to the present inventions are dry solids as evidenced by the appearance. […] Further, the granules were appeared as dry solids after 6 months of storage. The inventors of the present invention confirmed the stability of the granules by investigating the weight gain of the compositions and by calculating the relative weight gain with respect to glufosinate salt. The weight gain of the granular compositions according to the present invention were investigated at 30° C. and 60% humidity as per ASTM (1996) method and the results are summarized in the below table (Table 3).
Relative % weight gain of the composition is calculated using the formula given below:
[formula] [formula] • wherein X is glufosinate ammonium technical

[2] = Physical appearance in open containers at ambient conditions; type: physicochemical
Source text: The appearances for the granular compositions prepared according to the present invention were investigated in open containers at ambient conditions.
as §1

CP(=O)(O)CCC(N)C(=O)O (stereo not shown) [Glufosinate ammonium, 2-amino-4-[hydroxy(methyl)phosphinoyl]butyric acid]
% weight gain after 24 hrs ([1]; 24 hrs): 1.834% | Weight of sample after 24 hrs ([1]; 24 hrs): 1.0219 g | Relative % weight gain after 24 hrs ([1]; 24 hrs, relative to glufosinate ammonium technical): 100% | Weight of sample ([1]; start): 1.0035 g | Appearance at 0 hrs ([2]; 0 hrs): Dry solid | Appearance After 24 hrs ([2]; 24 hrs): Wet solid | Appearance After 72 hrs ([2]; 72 hrs): Liquid
